Experimental data published in PMC12058161, “The plant matrix of Artemisia annua L. for the treatment of malaria: Pharmacodynamic and pharmacokinetic studies” (PLOS One, 2025).
Values joined by “and” are separate entries in the source; they are usually repeats but may differ in a detail not shown here. Equal entries are not always repeated.

Experiments:
CYP3A4 = conditions: read-out: IC50 of CYP3A4 inhibition; cited from earlier work
[1] = male, Sprague Dawley, rat, in vivo
Protocol: (§1) Blood samples were centrifuged at 3500 rpm for 5 min at 4°C. All plasma samples were then stored at -80°C until analysis.
(§2) All samples were stored in a refrigerator at -80°C and thawed at room temperature before processing. A 50 μL aliquot of plasma was added with 5 μL of the standard solution (or acetonitrile) and 100 μL of internal standard solution in turn, vortexed and mixed, then sonicated for 3 min, centrifuged at 14000 rpm for 10 min at low temperature. The supernatant was transferred to an autosampler vial and analyzed by UHPLC-ESI-MS/MS.
(§3) The mobile phase consisted of 0.1% formic acid solution (A) and acetonitrile (B).
(§4) The ESI ionization source was used and detected in MRM mode.
(§5) All data were presented as mean ± SD. Pharmacokinetic parameters including half-life (t1/2), maximum plasma time (Tmax) and concentration (Cmax), area under concentration-time curve (AUC0-t and AUC0-∞), clearance (CL), steady-state volume of distribution (Vz), and mean residence time (MRT) were analyzed by non-compartmental method using DAS Version 2.0 (Chinese Pharmacological Society, Beijing, China). […] The data were analyzed by Student’s t-test for two groups and one-way analysis of variance for multiple groups; p < 0.05 was considered statistically significant.

P-glycoprotein (P-gp) = target: T1, P-glycoprotein (P-gp) (Homo sapiens, UniProt P08183); assay: Rhodamine 123 (P-gp substrate) transport across drug-treated Caco-2 cell monolayers; format: cell-based; conditions: co-incubated with R123, 10 μM, Caco-2 monolayer, Fig 6
T1 construct: The transport of R123 in normal Caco-2 cell monolayers or drug-treated Caco-2 cell monolayers was further studied; host or cells: Caco-2
T1 sequence (P08183 whole entry): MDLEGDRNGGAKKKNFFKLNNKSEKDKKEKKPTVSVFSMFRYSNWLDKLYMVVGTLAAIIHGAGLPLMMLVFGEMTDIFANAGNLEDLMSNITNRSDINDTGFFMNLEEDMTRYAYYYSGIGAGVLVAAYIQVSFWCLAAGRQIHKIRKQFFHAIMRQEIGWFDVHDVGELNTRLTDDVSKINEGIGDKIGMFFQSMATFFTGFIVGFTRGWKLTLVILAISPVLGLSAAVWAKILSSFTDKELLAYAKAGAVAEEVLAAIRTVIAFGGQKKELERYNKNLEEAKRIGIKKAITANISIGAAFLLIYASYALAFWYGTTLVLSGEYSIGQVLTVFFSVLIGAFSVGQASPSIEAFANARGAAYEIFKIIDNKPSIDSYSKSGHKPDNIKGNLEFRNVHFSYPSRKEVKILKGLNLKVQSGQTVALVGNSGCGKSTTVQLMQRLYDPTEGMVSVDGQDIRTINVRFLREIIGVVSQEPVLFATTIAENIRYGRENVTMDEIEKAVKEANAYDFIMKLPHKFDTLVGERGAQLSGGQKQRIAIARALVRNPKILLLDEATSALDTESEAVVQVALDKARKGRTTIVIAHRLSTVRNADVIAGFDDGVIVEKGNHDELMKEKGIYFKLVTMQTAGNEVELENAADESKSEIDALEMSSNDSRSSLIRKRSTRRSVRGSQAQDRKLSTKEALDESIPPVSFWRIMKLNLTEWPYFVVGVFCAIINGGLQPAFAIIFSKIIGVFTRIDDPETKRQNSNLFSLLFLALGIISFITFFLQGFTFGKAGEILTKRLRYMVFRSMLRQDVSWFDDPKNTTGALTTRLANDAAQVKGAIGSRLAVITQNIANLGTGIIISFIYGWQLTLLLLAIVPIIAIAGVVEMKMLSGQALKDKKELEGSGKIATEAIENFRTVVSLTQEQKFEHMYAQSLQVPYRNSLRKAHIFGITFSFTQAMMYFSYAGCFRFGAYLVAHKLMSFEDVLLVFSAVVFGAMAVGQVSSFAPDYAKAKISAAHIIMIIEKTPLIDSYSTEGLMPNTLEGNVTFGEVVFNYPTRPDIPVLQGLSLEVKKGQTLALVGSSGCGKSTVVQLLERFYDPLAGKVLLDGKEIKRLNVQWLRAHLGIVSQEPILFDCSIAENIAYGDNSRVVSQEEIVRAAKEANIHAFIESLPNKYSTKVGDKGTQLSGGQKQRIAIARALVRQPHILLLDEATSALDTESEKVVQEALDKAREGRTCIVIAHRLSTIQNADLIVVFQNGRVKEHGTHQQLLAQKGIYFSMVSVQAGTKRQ
Excerpt: The human epithelial cell line Caco-2 serves as a widely recognized model for the intestinal epithelial barrier, frequently utilized in the assessment of drug absorption and transport mechanisms. In this study, we evaluated drug absorption and distribution in vitro with the help of the Caco-2 cell model. Caco-2 cells were purchased from the Chinese Academy of Medical Sciences (Beijing, China, Resource No. 3111C0001CCC000100). The cells were resuscitated and inserted into culture flasks. Caco-2 cells were passaged with DMEM high glucose medium containing 10% (V/V) FBS, 1% (V/V) non-essential amino acid solution and 100 U/mL penicillin-streptomycin double antibiotic solution, and cultured at 37°C in a 5% CO2 incubator. […] The integrity of the cell monolayer was checked by measuring the transmembrane electrical resistance (TEER) of the monolayer cells with a Millicell-ERS electrode (Millipore Corp., Billerica, MA, USA). Caco-2 cells were used for transport experiments 17–21 days after inoculation. Besides, only monolayers with TEER values above 400 Ω/cm^2 were used in the study.
The transport of R123 in normal Caco-2 cell monolayers or drug-treated Caco-2 cell monolayers was further studied. […] The transport buffer containing 5 μM of R123 was added on either the AP or the BL side of the inserts, as described above. […] The concentrations of R123 were immediately analyzed by SpectraMax iD3. The excitation wavelength was set at 485 nm, and the emission wavelength at 535 nm. Papp values across the cell monolayers were calculated according to the equation: Papp = dQ/dt × 1/(A × C0), where dQ/dt represents the rate of drug transport. […] The efflux ratio was calculated using the Papp (BL-AP) to Papp (AP-BL) ratio.

[2] = Stability of the five compounds in SD rat plasma (QC samples, UHPLC-ESI-MS/MS); format: in vitro ADME; conditions: for stability, Accuracy (measured versus nominal concentration) / stability, mean ± SD (measured concentration): SD rat plasma, n=5
Protocol: The method was validated according to the US Food and Drug Administration (FDA) Bioanalytical Method Validation Guidance as follows: [1] specificity was assessed by analyzing blank plasma, blank plasma spiked with standard solutions and rat plasma samples after oral administration. Each calibration curve was plotted using the concentration of the standard solution as the horizontal coordinate and the ratio of analyte to internal standard peak area as the vertical coordinate. The lower limit of quantification (LLOQ) refers to the lowest concentration, which is typically 10 times the signal-to-noise ratio. It has an acceptable accuracy of ± 20% and a precision of less than 20% [3]. Quality Control (QC) samples (low, medium and high concentrations) were prepared for each analyte. Five samples were analyzed at each concentration level and three consecutive batches were determined to calculate the accuracy and precision of the method. Extraction recovery was assessed by the ratio of the average peak area of routinely prepared QC samples (low, medium, and high concentrations) to the post-extraction plasma sample. Likewise, matrix effect was assessed by the ratio of peak areas between post-extraction samples spiked with analytes and mobile phases spiked with the same concentration of analytes.

in vivo = conditions: male, Sprague Dawley, rat, po, 352 mg/kg
Protocol: as §1, §2, §3, §4, §5

Caco-2 cells = assay: Cytotoxicity in Caco-2 cells, CCK-8 assay; format: cell-based, human; conditions: for Cell survival rate%: mean; for cck-8 mean (survival fraction): mean of 6
Protocol: Caco-2 cells were cultured in 96-well plates for 48 h at a seeding density of 5.0 × 10^3 cells/well before the addition of drugs. […] The final concentration of DMSO was 0.05% (v/v). Experiments were initiated by replacing the culture medium in each well with 100 μL of sample solutions at 37°C in the CO2 incubator. After 48 h of incubation, the medium was removed and 10 μL of CCK-8 reagent in the serum-free medium was added to each well. The plates were then incubated at 37°C for another 2 h. At the end of the incubation period, the plates were quantified by reading the absorbance at 450 nm on a micro-plate multi-detection instrument, SpectraMax iD3 with SoftMax® Pro (Molecular Devices Corporation Sunnyvale, CA, USA). The percentage of cell viability was calculated based on the absorbance measured relative to the absorbance of cells exposed to the negative control.

[3] = nominal 160 ng/mL, 3 freeze-thaw cycles
[4] = nominal 160 ng/mL, 7 days at -80°C
[5] = nominal 160 ng/mL, Room temperature 24h
[6] = nominal 1000 ng/mL, 3 freeze-thaw cycles
[7] = nominal 1000 ng/mL, 7 days at -80°C
[8] = nominal 1000 ng/mL, Room temperature 24h
[9] = nominal 5000 ng/mL, 3 freeze-thaw cycles
[10] = nominal 5000 ng/mL, 7 days at -80°C
[11] = nominal 5000 ng/mL, Room temperature 24h
[12] = Caco-2, concentration 10 μmol/L
[13] = Caco-2, concentration 20 μmol/L
[14] = Caco-2, concentration 40 μmol/L
[15] = Caco-2, concentration 80 μmol/L

SMILES: C=C1C(=O)O[C@@]23[C@H]1CC[C@@H](C)[C@@H]2CC[C@@]1(C)O[C@@H]31 [arteannuin B]
- IC50 (CYP3A4): 1200 nM

SMILES: CC1=C[C@H]2[C@@H](CC1)[C@H](C)CC[C@H]2[C@@H](C)C(=O)O [DHAA, Dihydroartemisinic acid]
- CLz [1]: 24 mL/day/kg
- CL ([1]; po, 352 mg/kg): 0.001 ± 0.001 L/h
- Vz ([1]; po, 352 mg/kg): 0.005 ± 0.001 L
- reduction of R123 transport from the BL side to the AP side (P-glycoprotein (P-gp)): 45.21%
- Stability, measured concentration, mean ± SD ([2]; QC sample 160 ng/mL, 3 freeze-thaw cycles): 161 ± 10.8 ng/mL and 160.872 ng/mL
- Stability, measured concentration, mean ± SD ([2]; QC sample 160 ng/mL, 7 days at -80°C): 149 ± 5.80 ng/mL and 149.16 ng/mL
- Stability, measured concentration, mean ± SD ([2]; QC sample 160 ng/mL, Room temperature 24h): 151 ± 5.81 ng/mL and 151.046 ng/mL
- Stability, measured concentration, mean ± SD ([2]; QC sample 1000 ng/mL, 3 freeze-thaw cycles): 914 ± 35.7 ng/mL and 914.334 ng/mL
- Stability, measured concentration, mean ± SD ([2]; QC sample 1000 ng/mL, 7 days at -80°C): 1064 ± 21.4 ng/mL and 1063.64 ng/mL
- Stability, measured concentration, mean ± SD ([2]; QC sample 1000 ng/mL, Room temperature 24h): 959.663 ng/mL and 960 ± 45.4 ng/mL
- Stability, measured concentration, mean ± SD ([2]; QC sample 5000 ng/mL, 3 freeze-thaw cycles): 4813 ± 108 ng/mL and 4813.44 ng/mL
- Stability, measured concentration, mean ± SD ([2]; QC sample 5000 ng/mL, 7 days at -80°C): 4814 ± 118 ng/mL and 4813.94 ng/mL
- Stability, measured concentration, mean ± SD ([2]; QC sample 5000 ng/mL, Room temperature 24h): 5079.03 ng/mL and 5079 ± 336 ng/mL
- stability, Accuracy (measured versus nominal concentration) [2, 3]: 100.54%
- stability, mean ± SD (measured concentration) [2, 3]: 161 ± 10.8 ng/mL
- stability, Accuracy (measured versus nominal concentration) [2, 4]: 93.23%
- stability, mean ± SD (measured concentration) [2, 4]: 149 ± 5.80 ng/mL
- stability, Accuracy (measured versus nominal concentration) [2, 5]: 94.40%
- stability, mean ± SD (measured concentration) [2, 5]: 151 ± 5.81 ng/mL
- stability, Accuracy (measured versus nominal concentration) [2, 6]: 91.43%
- stability, mean ± SD (measured concentration) [2, 6]: 914 ± 35.7 ng/mL
- stability, Accuracy (measured versus nominal concentration) [2, 7]: 106.36%
- stability, mean ± SD (measured concentration) [2, 7]: 1064 ± 21.4 ng/mL
- stability, Accuracy (measured versus nominal concentration) [2, 8]: 95.97%
- stability, mean ± SD (measured concentration) [2, 8]: 960 ± 45.4 ng/mL
- stability, Accuracy (measured versus nominal concentration) [2, 9]: 96.27%
- stability, mean ± SD (measured concentration) [2, 9]: 4813 ± 108 ng/mL
- stability, Accuracy (measured versus nominal concentration) [2, 10]: 96.28%
- stability, mean ± SD (measured concentration) [2, 10]: 4814 ± 118 ng/mL
- stability, Accuracy (measured versus nominal concentration) [2, 11]: 101.58%
- stability, mean ± SD (measured concentration) [2, 11]: 5079 ± 336 ng/mL
- AUC(0-inf) (in vivo): 29700 ± 6700 ng·h/mL
- AUC(0-t) (in vivo): 28700 ± 6660 ng·h/mL
- Cmax (in vivo; Cmax): 10400 ± 2440 ng/mL
- MRT inf (in vivo; MRT(0-∞)): 6.08 ± 1.27 h
- half-life (in vivo; t1/2): 4.64 ± 1.18 h
- half-life (in vivo; t1/2z): 3.97 h
- Cell survival rate%, single replicate (Caco-2 cells; Caco-2, 5μmol/L): 84.02% and 84.22% and 87.64% and 85.87% and 89.84% and 87.8%
- Cell survival rate%, single replicate (Caco-2 cells; Caco-2, 10μmol/L): 84.68% and 88.84% and 86.58% and 89.08% and 86.49% and 80.21%
- Cell survival rate%, single replicate (Caco-2 cells; Caco-2, 20μmol/L): 84.63% and 81.53% and 85.05% and 89.44% and 83.52% and 78.29%
- Cell survival rate%, single replicate (Caco-2 cells; Caco-2, 40μmol/L): 84.99% and 84.53% and 82.56% and 83.98% and 80.6% and 81.3%
- Cell survival rate%, single replicate (Caco-2 cells; Caco-2, 80μmol/L): 80.04% and 80.37% and 80.83% and 80.86% and 80.51% and 80.11%
- cck-8 cell survival as fraction, single replicate (Caco-2 cells; Caco-2, concentration 5 μmol/L): 0.8402 and 0.8422 and 0.8764 and 0.8587 and 0.8984 and 0.878
- Cell survival rate% (Caco-2 cells; Caco-2, concentration 5 μmol/L): 86.56%
- cck-8 mean (survival fraction) (Caco-2 cells; Caco-2, concentration 5 μmol/L): 0.87
- cck-8 cell survival as fraction, single replicate (Caco-2 cells; [12]): 0.8468 and 0.8884 and 0.8658 and 0.8908 and 0.8649 and 0.8021
- Cell survival rate% (Caco-2 cells; [12]): 85.98%
- cck-8 mean (survival fraction) (Caco-2 cells; [12]): 0.86
- cck-8 cell survival as fraction, single replicate (Caco-2 cells; [13]): 0.8463 and 0.8153 and 0.8505 and 0.8944 and 0.8352 and 0.7829
- Cell survival rate% (Caco-2 cells; [13]): 83.74%
- cck-8 mean (survival fraction) (Caco-2 cells; [13]): 0.84
- cck-8 cell survival as fraction, single replicate (Caco-2 cells; [14]): 0.8499 and 0.8453 and 0.8256 and 0.8398 and 0.806 and 0.813
- Cell survival rate% (Caco-2 cells; [14]): 82.99%
- cck-8 mean (survival fraction) (Caco-2 cells; [14]): 0.83
- cck-8 cell survival as fraction, single replicate (Caco-2 cells; [15]): 0.8004 and 0.8037 and 0.8083 and 0.8086 and 0.8051 and 0.8011
- Cell survival rate% (Caco-2 cells; [15]): 80.45%
- cck-8 mean (survival fraction) (Caco-2 cells; [15]): 0.80
